Data: publication PMC9163038 (Scientific Reports, 2022)
Like-named read-outs stand apart in the source and are kept apart here. Where a SMILES comes first, the peptide text is derived from it. Bridges are numbered along the chain shown (N, C = ends).

Experiments:
mouse CCK2R = biological target: T1, mouse CCK2R (Mus musculus, UniProt P56481); assay: Inositol-1-phosphate (IP1) accumulation assay (HTRF) in HEK293 cells transiently expressing CCK2R; conditions: for Antagonism of CCK-8-induced IP1 formation: antagonist 500 nM, preincubated 30 min at 37 °C, CCK-8 10 nM, Fig. S1b, n = 3-5; for Emax: HEK293, read-out: Maximum efficacy (Emax) at the CCK2R; for IP1 formation (fold difference over baseline): positive control, n = 3-4
T1 sequence (P56481 1-453): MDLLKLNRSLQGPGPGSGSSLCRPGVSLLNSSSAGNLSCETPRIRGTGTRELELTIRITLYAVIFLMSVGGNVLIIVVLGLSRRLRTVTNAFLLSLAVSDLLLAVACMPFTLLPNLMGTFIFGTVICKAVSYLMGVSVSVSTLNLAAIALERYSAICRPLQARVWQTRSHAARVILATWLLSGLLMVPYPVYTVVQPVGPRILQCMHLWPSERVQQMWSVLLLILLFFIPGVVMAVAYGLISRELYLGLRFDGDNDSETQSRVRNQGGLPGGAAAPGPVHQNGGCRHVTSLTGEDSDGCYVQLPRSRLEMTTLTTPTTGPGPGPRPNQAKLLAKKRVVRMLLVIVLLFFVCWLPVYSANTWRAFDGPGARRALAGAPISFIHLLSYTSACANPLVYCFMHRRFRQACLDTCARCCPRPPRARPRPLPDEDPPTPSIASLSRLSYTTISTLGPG
Protocol: Human embryonic kidney (HEK293) cells (Ref.[31]) were maintained in a fresh Dulbecco’s modified Eagle’s medium supplemented with 10% fetal bovine serum, 100 U/mL penicillin, and 100 µg/mL streptomycin in a humidified atmosphere of 5% CO2 at 37 °C. 2 mL of cell suspension was poured into each well of a 6-well plate and incubated overnight at 37 °C. After reaching to a confluency of 70–80%, the cells were transfected with a plasmid encoding EGFP-tagged CCK2R using the jetPRIME transfection reagent according to manufacturer’s instructions (Polyplus-transfection, USA).
The receptor-mediated activation of Gq-dependent signaling was measured using a homogenous time-resolved fluorescence (HTRF) based inositol-1-phosphate (IP1) assay kit (Cisbio, France). Approximately 3-6 × 10^4 HEK293 cells expressing the CCK2R were seeded into each well of a 96- or 384-well plate and incubated overnight at 37 °C. […] Antagonists YM-022 and LY225910 (500 nM or 1 µM, both Sigma -Aldrich, Austria) were preincubated at 37 °C for 30 min. After adding IP1-d2 conjugate and anti-IP1 Eu Cryptate according to manufacturers’ instructions, the plate was incubated at room temperature for 3 h. The HTRF measurement was carried out using the FlexStation 3 multi-mode microplate reader with excitation at 330 nm and emissions at 620 and 665 nm.
All experiments were performed in triplicate, analyzed using the GraphPad prism software (GraphPad Software, USA) and expressed as mean ± SD (standard deviation). Pharmacological data of concentration response curves were normalized to the maximal response of CCK-8 detected at the highest concentration. […] Single concentration efficacy data were normalized to baseline (assay buffer) and data were expressed as IP1 formation (fold difference over baseline).

HEK293 cells = assay: Cell viability assay (Cell Counting Kit-8); conditions: 2 h incubation
Protocol: Effect on cell viability of plant extract was measured against the HEK293 cell line using the Cell Counting Kit-8 (VitaScientific, USA). Briefly, 100 µL of medium containing 1 × 10^4 cells was seeded in each well of a 96-well plate and incubated at 37 °C for 24 h. […] Finally, 10 µL of the kit reagent (final concentration of 10%, v/v) was added into each well and incubated at 37 °C for 3 h. Absorbance was measured at 450 nm using the FlexStation 3 multi-mode microplate reader (Molecular Devices, USA). Triton X-100 and medium were used as positive and negative controls, respectively. The cell viability (CV) percentage was calculated using the following equation: CV (%) = (AS/AC) × 100, whereas AS and AC are related to the absorbance of sample and negative control at 450 nm.

[1] = biological target: T2, mouse cholecystokinin-2 receptor, EGFP-tagged (mouse) (UniProt P56481)
T2 sequence: T1 sequence (P56481 1-453)

[2] = biological target: T2, mouse cholecystokinin-2 receptor, EGFP-tagged (mouse); remark: listed apart in the source

Question: With `Cc1cccc(NC(=O)N[C@@H]2N=C(c3ccccc3)c3ccccc3N(CC(=O)c3ccccc3C)C2=O)c1` [YM-022, (R)-1-[2,3-dihydro-1-(2'-methylphenacyl)-2-oxo-5-phenyl-1H-1,4-benzodiazepin-3-yl]-3-(3-methylphenyl) urea] as the molecule, how does the “Antagonism of CCK-8-induced IP1 formation” value (mouse CCK2R) read?
Answer: significant inhibition of the IP1 formation

Question: How did the “Antagonism of CCK-8-induced IP1 formation” value (mouse CCK2R) turn out when `CC(C)Oc1cccc(-n2c(CCc3c[nH]c4ccc(Br)cc34)nc3ccccc3c2=O)c1` [LY225910] was run?
Answer: did not displace the effects of endogenous ligand CCK-8

Question: With `CC[C@H](C)[C@@H]1NC(=O)[C@@H]2CSSC[C@@H]3NC(=O)[C@H](C(C)C)NC(=O)[C@H](CCCCN)NC(=O)[C@H](CCCCN)NC(=O)[C@H](CCCCN)NC(=O)[C@@H]4CSSC[C@H](NC(=O)[C@H](CO)NC(=O)[C@H](CCC(=O)O)NC(=O)CNC(=O)[C@H](CSSC[C@H](NC(=O)CNC(=O)[C@H]([C@@H](C)CC)NC(=O)[C@H](C(C)C)NC(=O)[C@H]([C@@H](C)O)NC(=O)[C@H](CO)NC1=O)C(=O)N[C@@H](CO)C(=O)N4)NC(=O)[C@@H]1CCCN1C(=O)[C@H]([C@@H](C)CC)NC(=O)[C@H](C(C)C)NC(=O)CNC(=O)[C@H](CC(N)=O)NC(=O)[C@H](CCCNC(=N)N)NC(=O)[C@H](Cc1ccc(O)cc1)NC3=O)C(=O)N[C@@H](C(C)C)C(=O)N[C@@H](Cc1ccccc1)C(=O)N[C@@H]([C@@H](C)CC)C(=O)N1CCC[C@H]1C(=O)N2` [caripe 11] (cyclo(CGESCVFIPCISTVIGCSCKKKVCYRNGVIP); disulfide 1-17, 5-19, 10-24) as the molecule, how does the “Effect on HEK cell viability” value (HEK293 cells; caripe 11 100 µM) read?
Answer: slightly decreased HEK cell viability

Question: What about the “Effect on HEK cell viability” value (HEK293 cells; caripe 11 ≤ 30 µM) of the same molecule?
Answer: did not have a pronounced effect

Question: What about the Emax (mouse CCK2R; SD) of the same molecule?
Answer: 71 ± 6.9%

Question: What about the EC50 (mouse CCK2R; SD) of the same molecule?
Answer: 8500 ± 1700 nM

Question: What about the “Reduction of the EC80 effect of CCK-8” value (mouse CCK2R; caripe 11 30 µM co-incubated with CCK-8 70 nM (EC80), Fig. S1a, n = 2) of the same molecule?
Answer: ~ 20%

Question: What about the “Basal activity of the CCK-8 concentration-response curve upon co-treatment” value (mouse CCK2R; co-treatment with caripe 11 10 µM, increased from 0, Fig. 5b, n = 3) of the same molecule?
Answer: 17%

Question: For `CSCC[C@H](NC(=O)[C@H](Cc1ccc(OS(=O)(=O)O)cc1)NC(=O)[C@@H](N)CC(=O)O)C(=O)NCC(=O)N[C@@H](Cc1c[nH]c2ccccc12)C(=O)N[C@@H](CCSC)C(=O)N[C@@H](CC(=O)O)C(=O)N[C@@H](Cc1ccccc1)C(N)=O` [CCK-8, cholecystokinin-8], which “IP1 formation (fold difference over baseline)” value (mouse CCK2R; CCK-8 at 1 nM) is on record?
Answer: 0.09 fold difference over baseline

Question: And the “IP1 formation (fold difference over baseline)” value (mouse CCK2R; CCK-8 at 3 nM)?
Answer: 0.31 fold difference over baseline

Question: And the EC50 (mouse CCK2R; EC50 of CCK-8 alone, CCK-8 alone, Fig. 5b experiment, n = 3)?
Answer: 12.9 nM

Question: What about the Emax (mouse CCK2R) of the same molecule?
Answer: 100%

Question: What about the EC50 (mouse CCK2R; SD) of the same molecule?
Answer: 11.5 ± 1.5 nM

Question: “cholecystokinin-8 (from UniProt P06307 96-103) (peptide)” was tested. Which EC50 of IP1 accumulation, CCK-8 alone (control curve of the co-treatment experiment, Fig. 5b) [1] did it give?
Answer: 12.9 nM

B1: caripe 11 (peptide)
peptide: cyclo(GVIPCGESCVFIPCISTVIGCSCKKKVCYRN)
modifications: also: three disulfide bonds, pairing not given here
Question: How did the EC50 of IP1 accumulation (HTRF) in HEK293 cells transiently expressing CCK2R [2] turn out when B1 was run?
Answer: 8500 nM

Question: And the Emax of IP1 accumulation, normalised to the maximal response of CCK-8 [2]?
Answer: 71%

Question: What about the reduction of the IP1 effect of 70 nM (EC80) CCK-8 by co-incubated caripe 11 (3, 10, 30 µM); value at 30 µM [1] of the same molecule?
Answer: 20%
